Results published in patent US6417212B1, “Modulators of peroxisome proliferator activated receptors” (Eli Lilly & Company, priority 1999, dated 2002).

Legend:
huPPARα [1] = biological target: T1, huPPARα (Homo sapiens, UniProt Q07869); test: DNA-dependent binding (ABCD binding), SPA, huPPARα; conditions: displacement of tritium-labeled PPARα agonist radioligand
T1 sequence (Q07869 1-468): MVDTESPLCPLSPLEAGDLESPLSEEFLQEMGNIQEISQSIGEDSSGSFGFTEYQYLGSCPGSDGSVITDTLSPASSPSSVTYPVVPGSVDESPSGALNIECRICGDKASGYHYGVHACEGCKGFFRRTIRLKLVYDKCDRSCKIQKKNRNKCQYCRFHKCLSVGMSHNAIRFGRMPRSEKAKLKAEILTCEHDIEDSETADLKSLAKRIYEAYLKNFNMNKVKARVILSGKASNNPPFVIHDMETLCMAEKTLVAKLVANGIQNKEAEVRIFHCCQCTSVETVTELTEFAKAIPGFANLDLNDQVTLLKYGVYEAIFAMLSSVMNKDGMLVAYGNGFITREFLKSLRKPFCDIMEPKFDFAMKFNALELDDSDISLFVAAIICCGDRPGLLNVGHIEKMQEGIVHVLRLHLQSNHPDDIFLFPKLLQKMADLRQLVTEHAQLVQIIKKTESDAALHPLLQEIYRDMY
T1 sequence (P19793 1-462 partner): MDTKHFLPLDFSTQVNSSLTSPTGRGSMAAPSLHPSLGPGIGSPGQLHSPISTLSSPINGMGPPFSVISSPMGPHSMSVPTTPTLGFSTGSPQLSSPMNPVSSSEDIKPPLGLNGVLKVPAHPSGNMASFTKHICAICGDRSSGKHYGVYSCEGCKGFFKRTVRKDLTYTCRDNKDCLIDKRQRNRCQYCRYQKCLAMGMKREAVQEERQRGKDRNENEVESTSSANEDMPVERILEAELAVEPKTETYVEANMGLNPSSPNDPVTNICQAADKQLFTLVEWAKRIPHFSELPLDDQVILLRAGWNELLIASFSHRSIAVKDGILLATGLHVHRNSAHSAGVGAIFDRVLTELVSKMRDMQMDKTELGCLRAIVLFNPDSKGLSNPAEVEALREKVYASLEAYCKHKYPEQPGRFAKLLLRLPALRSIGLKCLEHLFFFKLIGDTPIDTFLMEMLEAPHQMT
Description: (§1) DNA-dependent binding (ABCD binding) was carried out using SPA technology with PPAR receptors. Tritium-labeled PPARγ and PPARα agonists were used as radioligands for generating displacement curves and IC50 values with compounds of the invention. Cotransfection assays were carried out in CV-1 cells. The reporter plasmid contained an acylCoA oxidase (AOX) PPRE and TK promoter upstream of the luciferase reporter cDNA. Appropriate PPARs and RXRα were constitutively expressed using plasmids containing the CMV promoter. […] In order to eliminate such interference, a GAL4 chimeric system was used in which the DNA binding domain of the transfected PPAR was replaced by that of GAL4, and the GAL4 response element was utilized in place of the AOX PPRE. Cotransfection efficacy was determined relative to PPARα agonist and PPARβ agonist reference molecules. Efficacies were determined by computer fit to a concentration-response curve, or in some cases at a single high concentration of agonist (10 μM). For binding or cotransfection studies with receptors other than PPARs, similar assays were carried out using appropriate ligands, receptors, reporter constructs, etc., for that particular receptor.
(§2) These studies were carried out to evaluate the ability of compounds of the invention to bind to and/or activate various nuclear transcription factors, particularly huPPARα (“hu” indicates “human”) and huPPARγ. These studies provide in vitro data concerning efficacy and selectivity of compounds of the invention. Furthermore, binding and cotransfection data for compounds of the invention were compared with corresponding data for marketed compounds that act on either huPPARα or huPPARγ.

huPPARα [2] = test: Cotransfection assay in CV-1 cells, huPPARα (GAL4 chimeric system); assay type: cell-based, human; conditions: luciferase reporter, relative to PPARα agonist reference molecule
Description: DNA-dependent binding (ABCD binding) was carried out using SPA technology with PPAR receptors. Tritium-labeled PPARγ and PPARα agonists were used as radioligands for generating displacement curves and IC50 values with compounds of the invention. Cotransfection assays were carried out in CV-1 cells. The reporter plasmid contained an acylCoA oxidase (AOX) PPRE and TK promoter upstream of the luciferase reporter cDNA. Appropriate PPARs and RXRα were constitutively expressed using plasmids containing the CMV promoter. For PPARα and PPARβ, interference by endogenous PPARγ in CV-1 cells was an issue. In order to eliminate such interference, a GAL4 chimeric system was used in which the DNA binding domain of the transfected PPAR was replaced by that of GAL4, and the GAL4 response element was utilized in place of the AOX PPRE. Cotransfection efficacy was determined relative to PPARα agonist and […] reference molecules. Efficacies were determined by computer fit to a concentration-response curve, or in some cases at a single high concentration of agonist (10 μM). For binding or cotransfection studies with receptors other than PPARs, similar assays were carried out using appropriate ligands, receptors, reporter constructs, etc., for that particular receptor.
as §2

huPPARγ [3] = biological target: T2, huPPARγ (Homo sapiens, UniProt P37231); test: DNA-dependent binding (ABCD binding), SPA, huPPARγ; conditions: displacement of tritium-labeled PPARγ agonist radioligand
T2 sequence (P37231 1-505): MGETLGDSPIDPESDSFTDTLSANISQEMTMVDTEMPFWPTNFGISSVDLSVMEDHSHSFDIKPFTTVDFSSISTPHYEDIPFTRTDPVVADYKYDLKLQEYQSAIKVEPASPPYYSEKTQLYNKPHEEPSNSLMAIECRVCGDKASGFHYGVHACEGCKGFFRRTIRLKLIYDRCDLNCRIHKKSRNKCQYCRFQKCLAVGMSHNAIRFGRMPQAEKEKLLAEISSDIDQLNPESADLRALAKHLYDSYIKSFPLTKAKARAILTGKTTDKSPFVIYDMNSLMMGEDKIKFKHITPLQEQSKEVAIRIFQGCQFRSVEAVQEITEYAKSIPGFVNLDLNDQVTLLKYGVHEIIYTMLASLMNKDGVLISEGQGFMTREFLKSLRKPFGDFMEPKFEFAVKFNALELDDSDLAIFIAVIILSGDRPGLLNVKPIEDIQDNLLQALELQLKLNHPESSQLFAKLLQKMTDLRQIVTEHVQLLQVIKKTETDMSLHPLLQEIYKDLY
T2 sequence (P19793 1-462 partner): T1 sequence (P19793 1-462 partner)
Description: as §1, §2

huPPARγ [4] = biological target: T2, huPPARγ; test: Cotransfection assay in CV-1 cells, huPPARγ; assay type: cell-based; parameters: expressed in transfected cells; host or cells: CV-1 cells; conditions: AOX PPRE luciferase reporter, relative to agonist reference molecule; for Emax: read-out: huPPARγ CTF Efficacy
Description: as §1, with “Tritium-labeled PPARγ and PPARα agonists were used as radioligands for generating displacement curves and IC50 values with compounds of the invention.” left out, “Cotransfection efficacy was determined relative to PPARα agonist and PPARβ agonist reference molecules.” left out
as §2

IC50 (huPPARα [1])	IC50 (huPPARγ [3])	Emax (huPPARγ [4])	huPPARγ CTF Efficacy (huPPARγ [4])	Compound	huPPARα CTF Efficacy (huPPARα [2])
0.35 µM	1.06 µM	80%		COc1ccccc1-c1ccc(-c2nc(CCOc3ccc(OC(C)(C)C(=O)O)cc3)c(C)o2)cc1 [Example 10, 2-(4-{2-[2-(2′-Methoxy-biphenyl-4-yl)-5-methyloxazol-4-yl]-ethoxy}-phenoxy)-2-methylpropionic acid]	111%
0.475 µM	0.928 µM	100%		Cc1oc(-c2ccc(-c3ccccc3F)cc2)nc1CCOc1ccc(OC(C)(C)C(=O)O)cc1 [Example 13, 2-(4-{2-[2-(2′-Fluorobiphenyl-4-yl)-5-methyloxazol-4-yl]-ethoxy}-phenoxy)-2-methylpropionic acid]	84%
0.539 µM	1.79 µM	145%		Cc1oc(-c2ccc(-c3ccc[nH]3)cc2)nc1CCOc1ccc(OC(C)(C)C(=O)O)cc1 [Example 18, 2-Methyl-2-[4-(2-{5-methyl-2-[4-(1H-pyrrol-2-yl)-phenyl]-oxazol-4-yl}-ethoxy)-phenoxy]propionic acid]	97%
0.371 µM	1.53 µM	126%		Cc1oc(-c2ccc(-c3ccccc3)cc2)nc1CCSc1ccc(OC(C)(C)C(=O)O)cc1 [Example 47, 2-{4-[2-(2-Biphenyl-4-yl-5-methyloxazol-4-yl)-ethylsulfanyl]-phenoxy}-2-methyl-propionic acid]	90%

More lines, now with the values behind:

Compound	IC50 (huPPARα [1])	IC50 (huPPARγ [3])	Emax (huPPARγ [4])	huPPARγ CTF Efficacy (huPPARγ [4])	huPPARα CTF Efficacy (huPPARα [2])
Cc1oc(-c2ccc(-c3ccccc3)cc2)nc1CCOc1ccc(OC(C)(C)C(=O)O)c(CC2CCCCC2)c1 [Example 25, 2-{4-[2-(2-Biphenyl-4-yl-5-methyloxazol-4-yl)-ethoxy]-2-cyclohexylmethyl-phenoxy}-2-methyl-propionic acid]	0.125 µM	0.081 µM	71%		104%
Cc1oc(-c2cccc(-c3ccccc3)c2)nc1CCOc1ccc(OC(C)(C)C(=O)O)c(CC2CCCCC2)c1 [Example 26, 2-{4-[2-(2-Biphenyl-3-yl-5-methyloxazol-4-yl)-ethoxy]-2-cyclohexylmethyl-phenoxy}-2-methyl-propionic acid]	0.078 µM	0.033 µM	73%		111%
Cc1oc(-c2ccc(-c3ccccc3)cc2)nc1CCOc1ccc(OC(C)(C)C(=O)O)c(CCc2ccccc2)c1 [Example 28, 2-{4-[2-(2-Biphenyl-4-yl-5-methyloxazol-4-yl)ethoxy]-2-phenethylphenoxy}-2-methylpropionic acid]	0.172 µM	0.14 µM	63%		93%
CCCCc1cc(OC(C)(C)C(=O)O)ccc1OCCc1nc(-c2cccc(-c3ccccc3)c2)oc1C [Example 32, 2-{4-[2-(2-Biphenyl-3-yl-5-methyloxazol-4-yl)ethoxy]-3-butylphenoxy}-2-methylpropionic acid]	0.047 µM	0.012 µM	60%		91%
Cc1oc(-c2ccc(-c3ccccc3)cc2)nc1CCOc1ccc(OC(C)(C)C(=O)O)cc1CC1CCCCC1 [Example 34, 2-{4-[2-(2-Biphenyl-4-yl-5-methyloxazol-4-yl)ethoxy]-3-cyclohexylmethylphenoxy}-2-methylpropionic acid]	0.193 µM	0.227 µM	55%		180%
Cc1oc(-c2cccc(-c3ccccc3)c2)nc1CCOc1ccc(OC(C)(C)C(=O)O)c(Cc2ccccc2)c1 [Example 35, 2-{2-Benzyl-4-[2-(2-biphenyl-3-yl-5-methyloxazol-4-yl)-ethoxy]-phenoxy}-2-methyl-propionic acid]	0.065 µM	0.024 µM	61%		90%
Cc1oc(-c2ccc(-c3ccccc3)cc2)nc1CCOc1ccc(OC(C)(C)C(=O)O)c(Cc2ccccc2)c1 [Example 36, 2-{2-Benzyl-4-[2-(2-biphenyl-4-yl-5-methyloxazol-4-yl)-ethoxy]-phenoxy}-2-methyl-propionic acid]	0.14 µM	0.062 µM	92%		140%
CC(C)(Oc1ccc(C(=O)c2ccc(Cl)cc2)cc1)C(=O)O [Fenofibric acid, reference compound]				0%	16%
